For series [1], the system named is MDA-MB-231/breast cancer cells. Briefly: SRB cytotoxicity assay. It is filed as cell-based. The conditions noted are these: Homo sapiens; MDA-MB-231, 72 h exposure. The procedure:
MDA-MB-231: Breast Cancer cell line was obtained from Nawah^TM Scientific Inc., (Cairo, Egypt). Cells were maintained within DMEM provided by 100 units/mL of penicillin, […], and 10% of heat-inactivated FBS within 5% (v/v) CO2 humidified atmosphere (37 °C). The validity of cell line was evaluated adopting the previously reported approach. Briefly, an accurate volume (100 μL) of cell line suspension (5 × 10^3 cells) was placed in 96-well plates and incubated for 24 h within complete media. Cell line suspensions were then treated with another 100 μL media spiked with various drug concentrations (0.01, 0.1, 1, 10, 100 μM/mL) and kept for 72 h. Then the media were replaced with 150 μL of 10% trichloroacetic acid (TCA) for fixing cells through subsequent 1 h incubation at 4 °C [74]. Following incubation, TCA was removed, and cells were washed via distilled water 5 times. Aliquots of 70 μL SRB solution (0.4% w/v; Cat.# S1402; Sigma-Aldrich^TM, Taufkirchen, Germany) were added and cell were then incubated in dark for 10 min at 25 °C. Plates were subjected to triplicate washing via 1% acetic acid and then permitted to be air-dried overnight. Protein-bound SRB stain was extracted by addition of tris base (150 μL, 10 mM) and the absorbance was measured at 540 nm using FLUOstar-Omega® microplate reader (BMG-Labtech^TM GmbH, Ortenberg, Germany).
Background: In SRB staining, fixed cells bind dye roughly in proportion to their protein.

The subject of a further series is A549/lung adenocarcinoma. Briefly: Morphological assessment. Particulars: 0.1-100 µM (5-FU 100 µM), 48 h, phase-contrast microscope. It is filed as cell-based, human.
In series [2] the test system is MDA-MB-231/breast cancer cell line. Put plainly: Apoptosis rate analysis, Annexin-V/FACS. Type of series: cell-based, human. Particulars: 13 µM, 48 h. The source says: Using flow cytometry, apoptosis rate analysis was proceeded through staining the cell surface-translocating phosphatidylserine with Annexin-V fluorescent conjugate, the calcium-dependent phospholipid binding protein [32]. However, cell cycle analysis was achieved using propidium iodine fluorescent dye to stoichiometrically stain cell DNA contents allowing quantitation and identification of all cell phase rates; G0-G1, S, G2/M, and pre-G1 [33, 34]. […] For identifying the mode of cell death promoted by 8b within MDA-MB-231/breast cancer cells, apoptosis rate analysis was performed following 48 h exposure time. […] Moreover, the average proportion of Annexin-V stained positive cells (total apoptotic cells) elevated from 1.72% within untreated cells to 18.93% in treated ones (p < 0.001). […] The above provided findings are supported by the previous cell cycle analysis confirming the potentiality of 8b as promising anticancer agent.
Apoptotic assay and cell cycle analysis were proceeded according to previous literatures. In brief, cells were planted in 1.0 × 10^6 cells/flask density for 24 h. Subsequently, 8b was added at its IC50 value and incubated for 48 h. Following incubation, MDA-MB-231 cells were trypsinized, harvested, and fixed according to information cited within Annexin® V-FITC Detection Kit (Cat.#: K101-25, BioVision^TM, Milpitas, CA, USA), for quantifying cell’s DNA contents being treated with 8b relative to control sample using propidium iodide stain (Cat.#: ab139418; Abcam^TM, Cambridge, MA, USA). Finally, flow cytometry analysis was done using BD-FACSCalibur® cell analyzer platform (Becton Dickinson-Biosciences-SG^TM, Singapore, Thailand) to estimate which cell cycle phase, the treated cells would be arrested in, as well as computing the percentage of apoptotic cells.

Series [3] is described as follows: In-vitro drug release, dialysis method. It is filed as physicochemical. Particulars: over 48 h, PBS pH 7.4, 37 °C, dialysis bag. The procedure: The in-vitro drug-release behavior of SLNs was determined through the dialysis method. The release of drug from SLNs was done using phosphate buffer saline (pH 7.4) as dissolution medium. An accurate amount of SLNs (equivalent to 5 mg drug) was taken and placed within the dialysis bag (MWCO: 12 kDa). The dialysis bag was closed from both ends and placed within 75 mL Phosphate Buffer Saline (pH 7.4) as dissolution medium. The analysis was conducted while maintaining the dissolution medium at 37 ± 1 °C and being stirred via magnetic stirrer at 100 rpm. Dissolution medium samples (2 mL) were withdrawn at pre-determined time intervals (0.5, 1, 2, 4, 8, 12, 24 and 48 h). Equal volumes of fresh dissolution medium were added to replace the withdrawn volumes for keeping sink condition. The experiment was done in triplicate and the amount of drug release was measured following the same procedure as in the entrapment efficiency section.

Series [4] concerns human cytochrome c protein. Briefly: ELISA protein level. Type of series: cell-based. The conditions noted are these: 13 μM, 48 h, MDA-MB-231; control 0.295 ng/mL. As for the experimental part: Dissection of the compound’s proapoptotic activity was proceeded through gene expression analysis for key genes, controlling apoptosis pathway, as well as protein level determination. Following 8b treatment for 48 h, alterations within MDA-MB-231/breast cancer cell expression of Bcl-2, Bax, caspase-3, -8, and -9 genes, as well as cytochrome c and class-III β-tubulin proteins levels were determined using real-time polymerase chain reaction (RT-PCR) or ELISA technique, respectively. Typically, Bcl-2, Bax, caspases, and cytochrome c proteins contributes within the regulation of apoptotic signaling. Acting as apoptotic activator (Bax) or inhibitor (Bcl-2), the Bcl-2 family proteins play their significant role in apoptosis. The caspases family are cysteine proteases being classified as either executioners; caspase-3, -6, or -7 or initiators; caspase-8 and -9 [36]. Regrading caspase-8, its activation is proceeded through extrinsic death-receptor dependent apoptotic pathway, while, caspase-9 activation is within the event of intrinsic mitochondrial cytochrome c leakage. Additionally, participation of activated caspase-3 is to be essential for caspase-8 activation. […]
Quantikine® Colorimetric Sandwich-ELISA Kit (Cat.#: DCTC0; R&D Systems, Minneapolis, MN, USA) was used for quantitating the targeted human cytochrome c protein through immunoassay protocol. […]

This note sets out measurements from article PMC7912796, “Design, Synthesis, Anticancer Activity, and Solid Lipid Nanoparticle Formulation of Indole- and Benzimidazole-Based Compounds as Pro-Apoptotic Agents Targeting Bcl-2 Protein” (Pharmaceuticals, 2021).

For `CCCc1ccc(-c2nn(-c3ccccc3)cc2C=NNC(=O)c2cc3ccccc3[nH]2)cc1` [Compound 8b, N′-((1-phenyl-3-(4-propylphenyl)-1H-pyrazol-4-yl)methylene)-1H-indole-2-carbohydrazide], the concentration for half-maximal inhibition (IC50) (in general, the concentration at which inhibition is half-maximal) in series [1] is 12.4 ± 0.5 µM. Besides, the cell morphology alterations entry in the series on A549/lung adenocarcinoma is “Comparable cell morphology changes”. In addition, the influence on necrosis result in series [2] is reported as “no influence on the necrosis”. In addition, in series [2] (quadrant assignment assumed), the “early apoptotic cell population (LR quadrant)” value is reported as 5.09%, the “late apoptotic cell population (UR quadrant)” value is 12.02% and the “necrotic cell population (UL quadrant)” value worked out at 1.82%. In addition, the “Annexin-V stained positive cells (total apoptotic cells)” value in series [2] (untreated 1.72%) turned out to be 18.93%. Further, the “total released amount of drug” value in series [3] is listed as 21.48 ± 1.17%. Also, in series [4], the cytochrome c level worked out at 0.675 ng/mL.
